Results on 1 compound are retold here after publication PMC5618429, “Kempopeptin C, a Novel Marine-Derived Serine Protease Inhibitor Targeting Invasive Breast Cancer” (Marine Drugs, 2017).

Broadly, the inhibition is the change of the read-out against control, counted positive when it falls. The low end stands for a response near the control, the high end for a response far below the control.

Test [1] concerns the target T1, recombinant human matriptase (Homo sapiens, UniProt Q9Y5Y6).
T1 construct: purchased R&D Systems 3946-SE-010
T1 sequence (Q9Y5Y6 615-855 limits assumed): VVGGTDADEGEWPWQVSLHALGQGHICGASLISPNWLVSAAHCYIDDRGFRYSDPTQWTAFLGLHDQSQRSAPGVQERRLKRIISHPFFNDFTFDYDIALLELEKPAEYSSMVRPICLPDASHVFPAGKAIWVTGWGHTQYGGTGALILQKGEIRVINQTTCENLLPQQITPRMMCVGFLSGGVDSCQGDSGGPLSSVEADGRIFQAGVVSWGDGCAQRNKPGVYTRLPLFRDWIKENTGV
The test can be described thus: In vitro cleavage of CDCP1 by matriptase (SDS-PAGE, silver stain). Type of test: biochemical. The conditions noted are these: enzyme to substrate ratio 1:5, pH 9.0, 37 °C, 30 min and 2 h, 10‒0.01 µM inhibitor, qualitative. The text has this:
Due to the significance of these proteases in cancer progression and metastasis, as well as their functional redundancy with respect to targeting overlapping substrates, we focused our studies on examining the effect of kempopeptin C (3) on the downstream cellular substrates of matriptase. Due to the limited amount of 3, our study aimed to provide a qualitative preliminary characterization of CDCP1 and Dsg-2 cleavage inhibition by kempopeptin C (3). […] CDCP1 is considered a potential prognostic marker with expression levels found to correlate with the recurrence and survival rate of cancer patients. […] The exact mechanism regulating the generation of the LMW fragment is poorly understood; however, there is evidence for the involvement of serine protease proteolytic activity. Several studies provided evidence for serine protease-mediated (trypsin, plasmin and matriptase) cleavage of CDCP1 [15, 38]. Therefore, we examined the ability of recombinant human matriptase to cleave CDCP1 in vitro and assessed the effect of kempopeptin C (3) on inhibiting/reducing this cleavage. Recombinant human matriptase was incubated with CDCP1 (final molar ratio 1:5) at different time points (30 min and 2 h) at 37 °C in the presence of varying concentrations of kempopeptin C (3) or solvent control (Figure 4A,B). […] LMW fragments were more readily detected at longer incubation times (2 h). […]

The test system of the next test is MDA-MB-231 cells. The test can be described thus: Transwell migration assay. It counts as cell-based. The conditions noted are these: Homo sapiens, MDA-MB-231, 48 h. As to the method: The significance of our compounds in inhibiting matriptase and targeting its downstream cellular substrates was evaluated by examining the effect of kempopeptin C (3) on the migration of highly invasive breast cancer cells. The effect on migration was investigated by treating MDA-MB-231 cells with different concentrations of the test compound or solvent control for 48 h. Following 48 h, migrated cells were stained with crystal violet, and the number was counted under the microscope. […] To rule out that proteasome inhibition might be responsible for the migration inhibitory activity, the effect of kempopeptin C (3) on the trypsin-like activity of proteasomes was tested in vitro.
Figure 7 The effect of kempopeptin C (3) on the migration of MDA-MB-231. MDA-MB-231 were incubated for 48 h in the presence of different concentrations (0, 10 or 20 µM) of 3 and the effect was compared to the solvent control. The graph represents the number of migrated cells in each treatment group. The asterisks denote the significance of p ≤ 0.01 relative to the solvent control using the two-tailed unpaired t-test. Data are presented as the mean ± SD, n = 3.
The migration assays were performed using BD falcon cell culture inserts (353097; PET membrane, 8-µm pore size; Fisher Scientific; Waltham, MA, USA) in 24-well plates. […]

On to `CCCC(=O)NC(C(=O)NC1C(=O)NC(CCCCN)C(=O)NC2CCC(O)N(C2=O)C(C(C)CC)C(=O)N(C)C(Cc2ccc(OC)c(Cl)c2)C(=O)NC(C(C)C)C(=O)OC1C)C(C)C` (stereo not shown) [Kempopeptin C, kempopeptin C], for which the results for the “Inhibition of in vitro cleavage of CDCP1 by matriptase” value in test [1] and in test [1] (listed as Kempopeptin C (3)) were “inhibit the cleavage” and “able to only minimize the cleavage at 10 µM”, respectively. This compound also showed an inhibition at 10 µM with MDA-MB-231 cells (MDA-MB-231, 10 µM) of 37%. Besides, in the test with MDA-MB-231 cells (MDA-MB-231, 20 µM), testing at 20 µM gave an inhibition of 60%.
